Test results taken from patent publication US20240287046A1, “COMPOUNDS AND RADIOLIGANDS FOR TARGETING NEUROTENSIN RECEPTOR AND USES THEREOF” (Full-Life Technologies HK Limited, priority 2022, published 2024).
Read-outs that look alike come from different tables or passages of the source.

Legend:
[1] = target: human NTSR-1 (Homo sapiens (Human), UniProt P30989); experiment: radioligand competitive binding assay using ^177Lu labeled C-1 as reference radioligand; settings: for Relative Binding Affinity: Mean IC50 of C-1/Mean IC50 of the test compound; for IC50: Nonlin fit, single assay, HT-29 cells
Sequence of human NTSR-1 (P30989 whole entry): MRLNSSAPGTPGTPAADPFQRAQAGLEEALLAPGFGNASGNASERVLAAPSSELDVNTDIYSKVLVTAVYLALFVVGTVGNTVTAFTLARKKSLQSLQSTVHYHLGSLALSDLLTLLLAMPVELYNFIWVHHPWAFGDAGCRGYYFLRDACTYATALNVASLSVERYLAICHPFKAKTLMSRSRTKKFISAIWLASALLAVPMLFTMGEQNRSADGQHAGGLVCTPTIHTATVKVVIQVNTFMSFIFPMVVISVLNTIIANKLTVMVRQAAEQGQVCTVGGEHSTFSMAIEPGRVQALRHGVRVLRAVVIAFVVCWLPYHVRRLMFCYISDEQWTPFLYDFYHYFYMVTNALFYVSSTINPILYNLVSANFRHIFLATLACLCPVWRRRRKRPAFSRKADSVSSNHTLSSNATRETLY
Procedure: The binding affinities of test compounds were determined by a radioligand competitive binding assay using ^177Lu labeled C-1 as the reference radioligand.
Briefly, 100 μL HT-29 cells expressing human NTSR-1 at a density of 1˜2×10^6 cells/mL were mixed with binding buffer (RPMI-1640 medium supplemented with 0.25% bovine serum albumin) in each well of the 96-well filter plate (Millipore). Then the cells in each well were incubated with ^177Lu—C-1 (0.55 μCi/well) and the test compound under 37° C. for 1 hr (n=3). After incubation, unbound ^177Lu—C-1 and the test compound in each well was removed by filtration using a Multiscreen vacuum manifold (Millipore) and the cells were further rinsed with the binding buffer for 5 times. The cells from each well were then collected and radioactivity of the cells in each well was individually measured by y counter (2480 WIZARD2, PerkinElmer). The best-fit IC50 value of test compounds (inhibitory concentration when 50% of the bound ^177Lu—C-1 on cells were displaced) were calculated by fitting the data with nonlinear regression using GraphPad Prism 8.0.1.

[2] = tested on: HT-29 tumor-bearing mice; experiment: Biodistribution of radionuclide labeled complexes in HT-29 tumor-bearing mice; assay type: in vivo, BALB/c nude mice
Procedure: (§1) The BALB/c nude mice (Charles River, Beijing) were utilized to establish the xenografted model for biodistribution study. All animal care and experimental procedure were performed by following the animal protocols approved by the ethics committee of China Institute of Radiation Protection.
(§2) Briefly, each mouse was inoculated with approximately 4×10^6 ASPC-1 cells (human pancreatic cancer cell line) or HT-29 cells (human colorectal adenocarcinoma cell line) expressing human NTSR-1 by subcutaneous injection at rear flank. After inoculation, the xenografted tumors were allowed to grow for ˜2-4 weeks till the tumor weight reached to about 0.05 to 0.50 g (0.20 g in average).
(§3) Biodistribution studies were performed by administrating the radionuclide labeled test compound at a dose of ˜30-50 μCi (100 μL in 0.9% NaCl, ˜1.11-1.85 MBq, with specific activity 30-250 μCi/nmol) to each animal through tail vein injection.
(§4) At different time points after the administration, the mice treated with each compound were euthanized. The tissues and organs of the animals in each group were collected, excised, weighed, and analyzed in a PerkinElmer 2480 WIZARD2γ counter, and the percent injected dose (% ID) and % ID/g of each organ or tissue were calculated.

[3] = tested on: ASPC-1 tumor-bearing mice; experiment: Biodistribution of radionuclide labeled complexes in ASPC-1 tumor-bearing mice; assay type: in vivo, BALB/c nude mice
Procedure: as §1, §2, §3, §4

[4] = read-out: LogIC50 Mean (converted)

SMILES: COc1cccc(OC)c1-c1cc(C(=O)NC2(C(=O)O)C3CC4CC(C3)CC2C4)nn1-c1ccc(N(CCCN(C)C)C(C)=O)cc1C(C)C (stereo not drawn) [Compound C-4, reference compound]
- Relative Binding Affinity [1]: 22.0

SMILES: COc1cccc(OC)c1-c1cc(C(=O)NC2(C(=O)O)C3CC4CC(C3)CC2C4)nn1-c1ccc(N(CCCN(C)C)C(=O)COCCOCCNC(=O)CN2CCN(CC(=O)O)CCN(CC(=O)O)CC2)cc1C(C)C (stereo not drawn) [Compound I-13]
- Relative Binding Affinity [1]: 14.6

SMILES: COc1cccc(OC)c1-c1cc(C(=O)NC2(C(=O)O)C3CC4CC(C3)CC2C4)nn1-c1ccc(NC(=O)COCCOCCNC(=O)CN2CCN(CC(=O)O)CCN(CC(=O)O)CCN(CC(=O)O)CC2)cc1C(C)C (stereo not drawn) [Compound I-12]
- Relative Binding Affinity [1]: 11.2

SMILES: COc1cccc(OC)c1-c1cc(C(=O)NC2(C(=O)O)C3CC4CC(C3)CC2C4)nn1-c1ccc(NCCCCN(C)C)cc1C(C)C (stereo not drawn) [II-2, 2-(5-(2,6-dimethoxyphenyl)-1-(4-((4-(dimethylamino)butyl)amino)-2-isopropylphenyl)-1H-pyrazole-3-carboxamido)adamantane-2-carboxylic acid]
- Relative Binding Affinity [1]: 293.0
- IC50 [1, 4]: 0.158 nM
- binding affinity compared to comparator compound C-1 or C-3 ([1]; single radioligand competitive binding assay): higher binding affinity

SMILES: COc1cccc(OC)c1-c1cc(C(=O)NC2(C(=O)O)C3CC4CC(C3)CC2C4)nn1-c1ccc(NCCCN(C)C)cc1C(C)C (stereo not drawn) [II-1, 2-(5-(2,6-dimethoxyphenyl)-1-(4-((3-(dimethylamino)propyl)amino)-2-isopropylphenyl)-1H-pyrazole-3-carboxamido)adamantane-2-carboxylic acid]
- Relative Binding Affinity [1]: 107.6
- improvement of potency vs SR142948 (C-3) ([1]; removal of the carbonyl group from the amide group): ≥ 10 fold

SMILES: CC(=O)N[C@@H](CCCCNC(=O)CN1CCN(CC(=O)O)CCN(CC(=O)O)CCN(CC(=O)O)CC1)C(=O)N1CCC[C@H]1C(=O)N(C)[C@@H](CCCNC(=N)N)C(=O)N[C@@H](CCCNC(=N)N)C(=O)N1CCC[C@H]1C(=O)N[C@@H](Cc1ccc(O)cc1)C(=O)N[C@H](C(=O)N[C@@H](CC(C)C)C(=O)O)C(C)(C)C [Compound C-1, reference compound]
- Relative Binding Affinity [1]: 1.00
- IC50 ([1]; read-out: IC50 (nM) Mean): 40.3 nM
- IC50 [1, 4]: 40.4 nM

SMILES: COc1cccc(OC)c1-c1cc(C(=O)NC2(C(=O)O)C3CC4CC(C3)CC2C4)nn1-c1ccc(CCCCN(C)CCCN(C)C(=O)CN2CCN(CC(=O)O)CCN(CC(=O)O)CCN(CC(=O)O)CC2)cc1C(C)C (stereo not drawn) [Compound I-9, 2,2′,2″-(10-(2-((3-((4-(4-(3-((2-carboxyadamantan-2-yl)carbamoyl)-5-(2,6-dimethoxyphenyl)-1H-pyrazol-1-yl)-3-isopropylphenyl)butyl)(methyl)amino)propyl)(methyl)amino)-2-oxoethyl)-1,4,7,10-tetraazacyclododecane-1,4,7-triyl)triacetic acid]
- Relative Binding Affinity [1]: 243.5

SMILES: COc1cccc(OC)c1-c1cc(C(=O)NC2(C(=O)O)C3CC4CC(C3)CC2C4)nn1-c1ccc(NCCCN(C)CCCNC(=O)COCCOCCNC(=O)CN2CCN(CC(=O)O)CCN(CC(=O)O)CCN(CC(=O)O)CC2)cc1C(C)C (stereo not drawn) [Compound I-3, 2,2′,2″-(10-(19-((4-(3-((2-carboxyadamantan-2-yl)carbamoyl)-5-(2,6 dimethoxyphenyl)-1H-pyrazol-1-yl)-3-isopropylphenyl)amino)-16-methyl-2,11-dioxo-6,9-dioxa-3,12,16-triazanonadecyl)-1,4,7,10-tetraazacyclododecane-1,4,7-triyl)tracetic acid]
- Relative Binding Affinity [1]: 519.8

SMILES: COc1cccc(OC)c1-c1cc(C(=O)NC2(C(=O)O)C3CC4CC(C3)CC2C4)nn1-c1ccc(N(CCCN(C)C)C(=O)COCCOCCNC(=O)CN2CCN(CC(=O)[O-])CCN(CC(=O)[O-])CCN(CC(=O)[O-])CC2)cc1C(C)C.[177Lu+3] (stereo not drawn) [^177Lu-I-6]
- % ID/g (1 h) Blood ([2]; Blood, 1 h): 3.2 ± 1.07 % ID/g
- % ID/g (4 h) Blood ([2]; Blood, 4 h): 0.08 ± 0.03 % ID/g
- % ID/g (1 h) Femur ([2]; Femur, 1 h): 0.68 ± 0.18 % ID/g
- % ID/g (4 h) Femur ([2]; Femur, 4 h): 0.2 ± 0.03 % ID/g
- % ID/g (1 h) Heart ([2]; Heart, 1 h): 1.17 ± 0.24 % ID/g
- % ID/g (4 h) Heart ([2]; Heart, 4 h): 0.12 ± 0.03 % ID/g
- % ID/g (1 h) Intestine ([2]; Intestine, 1 h): 1.21 ± 0.06 % ID/g
- % ID/g (4 h) Intestine ([2]; Intestine, 4 h): 0.27 ± 0.07 % ID/g
- % ID/g (1 h) Kidney ([2]; Kidney, 1 h): 5.9 ± 4.85 % ID/g
- % ID/g (4 h) Kidney ([2]; Kidney, 4 h): 5.14 ± 2.21 % ID/g
- % ID/g (1 h) Liver ([2]; Liver, 1 h): 1.28 ± 0.47 % ID/g
- % ID/g (4 h) Liver ([2]; Liver, 4 h): 0.83 ± 0.27 % ID/g
- % ID/g (1 h) Lung ([2]; Lung, 1 h): 1.66 ± 1.17 % ID/g
- % ID/g (4 h) Lung ([2]; Lung, 4 h): 0.27 ± 0.04 % ID/g
- % ID/g (1 h) Muscle ([2]; Muscle, 1 h): 0.57 ± 0.15 % ID/g
- % ID/g (4 h) Muscle ([2]; Muscle, 4 h): 0.09 ± 0.04 % ID/g
- % ID/g (1 h) Pancreas ([2]; Pancreas, 1 h): 0.62 ± 0.25 % ID/g
- % ID/g (4 h) Pancreas ([2]; Pancreas, 4 h): 0.14 ± 0.02 % ID/g
- % ID/g (1 h) Spleen ([2]; Spleen, 1 h): 0.45 ± 0.19 % ID/g
- % ID/g (4 h) Spleen ([2]; Spleen, 4 h): 0.26 ± 0.1 % ID/g
- % ID/g (1 h) Stomach ([2]; Stomach, 1 h): 0.69 ± 0.23 % ID/g
- % ID/g (4 h) Stomach ([2]; Stomach, 4 h): 0.32 ± 0.2 % ID/g
- % ID/g (1 h) Tumor ([2]; Tumor, 1 h): 10.31 ± 4.72 % ID/g
- % ID/g (4 h) Tumor ([2]; Tumor, 4 h): 7.53 ± 3.52 % ID/g
- tumor uptake relative to blood, liver and lung compared to ^177Lu—C5 ([3]; 1 or 4 hours): significantly higher tumor uptake
- uptake ratio Tumor/Blood ([3]; 1 h): 33.3
- uptake ratio Tumor/Kidney ([3]; 1 h): 3.42
- uptake ratio Tumor/Liver ([3]; 1 h): 25.0
- uptake ratio Tumor/Lung ([3]; 1 h): 23.7
- uptake ratio Tumor/Blood ([3]; 4 h): 364
- uptake ratio Tumor/Kidney ([3]; 4 h): 5.70
- uptake ratio Tumor/Liver ([3]; 4 h): 25.9
- uptake ratio Tumor/Lung ([3]; 4 h): 79.3
- % ID/g (1 h) Blood ([3]; Blood, 1 h): 0.38 ± 0.06 % ID/g
- % ID/g (4 h) Blood ([3]; Blood, 4 h): 0.04 ± 0.01 % ID/g
- % ID/g (1 h) Femur ([3]; Femur, 1 h): 0.12 ± 0.01 % ID/g
- % ID/g (4 h) Femur ([3]; Femur, 4 h): 0.12 ± 0.09 % ID/g
- % ID/g (1 h) Heart ([3]; Heart, 1 h): 0.22 ± 0.12 % ID/g
- % ID/g (4 h) Heart ([3]; Heart, 4 h): 0.12 ± 0.03 % ID/g
- % ID/g (1 h) Intestine ([3]; Intestine, 1 h): 0.77 ± 0.31 % ID/g
- % ID/g (4 h) Intestine ([3]; Intestine, 4 h): 0.22 ± 0.06 % ID/g
- % ID/g (1 h) Kidney ([3]; Kidney, 1 h): 3.71 ± 0.24 % ID/g
- % ID/g (4 h) Kidney ([3]; Kidney, 4 h): 2.39 ± 0.37 % ID/g
- % ID/g (1 h) Liver ([3]; Liver, 1 h): 0.51 ± 0.22 % ID/g
- % ID/g (4 h) Liver ([3]; Liver, 4 h): 0.53 ± 0.16 % ID/g
- % ID/g (1 h) Lung ([3]; Lung, 1 h): 0.54 ± 0.04 % ID/g
- % ID/g (4 h) Lung ([3]; Lung, 4 h): 0.17 ± 0.08 % ID/g
- % ID/g (1 h) Muscle ([3]; Muscle, 1 h): 0.06 ± 0 % ID/g
- % ID/g (4 h) Muscle ([3]; Muscle, 4 h): 0.08 ± 0.02 % ID/g
- % ID/g (1 h) Pancreas ([3]; Pancreas, 1 h): 0.11 ± 0.03 % ID/g
- % ID/g (4 h) Pancreas ([3]; Pancreas, 4 h): 0.06 ± 0.02 % ID/g
- % ID/g (1 h) Spleen ([3]; Spleen, 1 h): 0.09 ± 0.01 % ID/g
- % ID/g (4 h) Spleen ([3]; Spleen, 4 h): 0.13 ± 0.03 % ID/g
- % ID/g (1 h) Stomach ([3]; Stomach, 1 h): 0.27 ± 0.19 % ID/g
- % ID/g (4 h) Stomach ([3]; Stomach, 4 h): 0.21 ± 0.05 % ID/g
- % ID/g (1 h) Tumor ([3]; Tumor, 1 h): 12.71 ± 4.57 % ID/g
- % ID/g (4 h) Tumor ([3]; Tumor, 4 h): 13.64 ± 2.5 % ID/g

SMILES: COc1cccc(OC)c1-c1cc(C(=O)NC2(C(=O)O)C3CC4CC(C3)CC2C4)nn1-c1ccc(N(C)CCCN(C)CCCN(C)C(=O)COCCOCCNC(=O)CN2CCN(CC(=O)O)CCN(CC(=O)O)CCN(CC(=O)O)CC2)cc1C(C)C (stereo not drawn) [Compound I-4, 2,2′,2″-(10-(2-(4-(3-((2-carboxyadamantan-2-yl)carbamoyl)-5-(2,6-dimethoxyphenyl)-1H-pyrazol-1-yl)-3-isopropylphenyl)-6,10-dimethyl-11,20-dioxo-13,16-dioxa-2,6,10,19-tetraazahenicosan-21-yl)-1,4,7,10-tetraazacyclododecane-1,4,7-triyl)triacetic acid]
- Relative Binding Affinity [1]: 538.2

SMILES: COc1cccc(OC)c1-c1cc(C(=O)NC2(C(=O)O)C3CC4CC(C3)CC2C4)nn1-c1ccc(NCCCCCN(C)C)cc1C(C)C (stereo not drawn) [II-3, 2-(5-(2,6-dimethoxyphenyl)-1-(4-((5-(dimethylamino)pentyl)amino)-2-isopropylphenyl)-1H-pyrazole-3-carboxamido)adamantane-2-carboxylic acid]
- Relative Binding Affinity [1]: 535.2
